How the values were obtained:
[1] = target: T1, NS3 genotype 1b protease (Hepatitis C virus genotype 1b, UniProt Q9WMX2, E1202G); test: Ki determination, NS3 protease genotype 1b (fluorogenic depsipeptide substrate); assay type: biochemical; settings: NS3 protease domain genotype 1b, NS4A peptide
T1 construct: Purified NS3 protease domain (amino acids 1-181) of the genotype 1b and 3a virus were generated as above; K3 hexahistidine tag (N); rTEV protease cleavage site (N); made in house; host or cells: E. coli BL21AI
Source text: Ki Determination for Genotypes 1b and 3a NS3 Protease.
Purified NS3 protease domain (amino acids 1-181) of the genotype 1b and 3a virus were generated as above. The internally quenched fluorogenic depsipeptide substrate Ac-DED(Edans)-EEAbuψ[COO]ASK(Dabcyl)-NH2 and a synthetic peptide containing the hydrophobic core residues of the NS4A protein cofactor ([…]; NS4A peptide) were obtained from Anaspec, Inc. (San Jose, Calif.). Other chemicals and biochemicals were of reagent grade or better and were purchased from standard suppliers.
Reactions were run at room temperature in buffer consisting of 50 mM HEPES, 40% glycerol, 0.05% Triton X-100, 10 mM DTT, and 10% DMSO. The final assay solutions contained 50 pM NS3 genotype 1b protease or 200 pM genotype 3a protease, 20 μM NS4A peptide, and 4 μM substrate (genotype 1b) or 2 μM substrate (genotype 3a). Inhibitor concentrations varied from 100 nM to 5 pM in 3-fold dilutions, and no-inhibitor controls were included.
Compound dilutions were made in DMSO at 20× final concentration. Reaction mixtures were prepared in 96-well assay plates. A solution of enzyme and NS4A peptide in assay buffer (25 μL volume with both reagents at 4× final concentration) was mixed with 45 μL assay buffer and 5 μL of either inhibitor or DMSO, and pre-incubated at room temperature for 1 hour. The reaction was started by addition of 25 μL substrate solution at 4× final concentration. Plates were mixed vigorously for 5-10 seconds and reactions were allowed to proceed for 90 minutes. Fluorescence was measured every 30 s between 90 and 120 minutes reaction time using a Tecan InfiniTe M1000 or PerkinElmer Envision multimode plate reader with an excitation wavelength of 340 nm and an emission wavelength of 490 nm.
Rates were calculated from the progress curves at steady state, in the time frame of 90-120 minutes after addition of substrate. To determine the Ki, rates were plotted as a function of inhibitor concentration, and the data were fit with equation 1 (Morrison, J. F., Biochimica et Biophysica Acta 1969, 185, 269-286) to calculate Ki^app using GraphPad Prism 5. Active fraction of enzyme was determined by active site titration with known potent inhibitors. Ki was calculated from Ki^app/(1+[[S]/Km]).

[2] = tested on: genotype 1b stable HCV replicon (Con1) in Huh-7-derived cells; test: Stable subgenomic HCV replicon, genotype 1b, Renilla luciferase; assay type: cell-based; settings: Hepatitis C virus, stable replicon genotype 1b, 72 h, read-out: EC50 1B RLUC
Procedure, shortened: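 Replicons carry hRLuc-neo, EMCV IRES and NS3-NS5B with adaptive mutations: 1a H77 P1496L/S2204I, 1b Con1 E1202G/T1280I/K1846T, 4a ED43 Q1691R/S2204I. EC50 came from non-linear regression versus DMSO and a triple-inhibitor full-inhibition control.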

[3] = tested on: genotype 2a stable HCV replicon (JFH-1) in Huh-7-derived cells; test: Stable subgenomic HCV replicon, genotype 2a, Renilla luciferase; assay type: cell-based; settings: Hepatitis C virus, stable replicon genotype 2a, 72 h, read-out: EC50 2A RLUC
Experimental: (§1) Antiviral potency (EC50) was determined in both stable subgenomic HCV replicon cell lines and transient-transfected HCV replicon cells. The term half maximal effective concentration (EC50) refers to the concentration of a drug which induces a response halfway between the baseline and maximum after the exposure time specified below.
(§2) Stable subgenomic HCV replicons for genotype 1a, 1b, 2a, 3a, and 4a were established in Huh-7-derived cells as described by Lohmann et al (Lohmann V, Korner F, Koch J, et al Replication of subgenomic hepatitis C virus RNAs in a hepatoma cell line. Science 1999; 285:119-3). Each stable cell line contains a bicistronic HCV replicon that encodes a humanized Renilla luciferase (hRLuc) reporter gene fused to a selectable neomycin-resistance gene, followed by an EMCV IRES and the NS3-NS5B coding region of HCV. […] Luciferase activity was measured as a marker for intracellular HCV replication levels.
(§3) The genotype 1a stable replicon was derived from the H77 HCV strain and contained adaptive mutations P1496L and S2204I. The genotype 1b stable replicon was derived from the Con1 HCV strain and contained adaptive mutations E1202G, T1280I, and K1846T. […] The genotype 3a stable replicon was derived from the S52 HCV strain and contained adaptive mutations P1121 L, A1198T and S2210I (equivalent to S2204I in genotype 1). The genotype 4a stable replicon was derived from the ED43 HCV strain and contained adaptive mutations Q1691R and S2204I. All replicon cell lines were propagated in Huh-7-derived cells and maintained in Dulbecco's modified Eagle's Medium (DMEM) supplemented with 10% fetal bovine serum (FBS) and 0.5 mg/ml G418.
(§4) To perform EC50 assays, cells from each HCV replicon were dispensed into 384-well plates. Compounds were dissolved in DMSO at a concentration of 10 mM and diluted in DMSO using an automated pipetting instrument. Three-fold serially diluted compounds were directly added to the cells using an automated instrument. DMSO was used as a negative (solvent; no inhibition) control, and a combination of three HCV inhibitors including a protease inhibitor; an NS5A inhibitor and a nucleoside inhibitor was used at concentrations >100×EC50 as a positive control (100% inhibition). Seventy-two hours later, cells were lysed and Renilla luciferase activity were quantified as recommended by the manufacturer (Promega-Madison, Wis.). Non-linear regression was performed to calculate […], values.

[4] = tested on: genotype 3a stable HCV replicon (S52) in Huh-7-derived cells; test: Stable subgenomic HCV replicon, genotype 3a, Renilla luciferase; assay type: cell-based; settings: Hepatitis C virus, 72 h, read-out: EC50 3A RLUC
Experimental: as §1, §2, §3, §4

[5] = tested on: genotype 4a stable HCV replicon (ED43) in Huh-7-derived cells; test: Stable subgenomic HCV replicon, genotype 4a, Renilla luciferase; assay type: cell-based; settings: Hepatitis C virus, 72 h, read-out: EC50 4A RLUC
Experimental: as §1, §2, §3, §4

[6] = tested on: genotype 3a transient HCV replicon (S52) in Huh-7-derived cells; test: Transient-transfected HCV replicon, genotype 3a wild type; assay type: cell-based; settings: Hepatitis C virus; transient-transfected replicon genotype 3a wild type, 72 h; read-out: EC50 3A WT
[7] = tested on: genotype 1a (H77) wild-type transient HCV replicon in Huh-7-derived cells; test: Transient-transfected HCV replicon, genotype 1a wild type; assay type: cell-based; settings: Hepatitis C virus; transient-transfected replicon genotype 1a wild type, 72 h; read-out: EC50 1A WT
[8] = tested on: NS3/4a protease inhibitor resistant variant R155K in genotype 1a transient HCV replicon; test: Transient-transfected HCV replicon, genotype 1a R155K; assay type: cell-based; settings: Hepatitis C virus, 72 h, read-out: EC50 1A R155K
[9] = tested on: genotype 1b wild-type transient HCV replicon in Huh-7-derived cells; test: Transient-transfected HCV replicon, genotype 1b wild type; assay type: cell-based; settings: Hepatitis C virus; transient-transfected replicon genotype 1b wild type, 72 h; read-out: EC50 1B WT
[10] = tested on: NS3/4a protease inhibitor resistant variant D168A in genotype 1b transient HCV replicon; test: Transient-transfected HCV replicon, genotype 1b D168A; assay type: cell-based; settings: Hepatitis C virus, 72 h, read-out: EC50 1B D168A

T1 sequence (Q9WMX2 1027-1207 E1202G, other chains not shown): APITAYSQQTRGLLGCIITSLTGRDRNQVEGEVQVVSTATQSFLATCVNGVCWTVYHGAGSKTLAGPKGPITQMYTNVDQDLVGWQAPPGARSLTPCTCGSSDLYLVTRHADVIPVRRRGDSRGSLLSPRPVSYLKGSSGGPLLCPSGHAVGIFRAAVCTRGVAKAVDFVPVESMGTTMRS

Row | Compound | Ki [1] | EC50 [2] | EC50 [3] | EC50 [4] | EC50 [5] | EC50 [6] | EC50 [7] | EC50 [8] | EC50 [9] | EC50 [10]
1 | CC(C)(C)[C@@H]1NC(=O)O[C@@H]2C[C@@H]3C[C@@H]3[C@H]2CCCCC(F)(F)c2nc3ccc(OC(F)F)cc3nc2O[C@@H]2C[C@@H](C(=O)N[C@]3(C(=O)NS(=O)(=O)C4CC4)C[C@H]3C(F)F)N(C2)C1=O [Example 16, (1aS,2aR,6S,9S,11R,23aR,23bS)-6-tert-butyl-N-[(1R,2R)-1-[(cyclopropylsulfonyl)carbamoyl]-2-(difluoromethyl)cyclopropyl]-15-(difluoromethoxy)-19,19-difluoro-4,7-dioxo-1a,2,2a,4,5,6,7,10,11,19,20,21,22,23,23a,23b-hexadecahydro-1H,9H-8,11-methanocyclopropa[4′,5′]cyclopenta [1′,2′:18,19][1,10,3,6]dioxadiazacyclononadecino[11,12-b]quinoxaline-9-carboxamide] | 0.03 nM | 4.2 nM | 2.3 nM | 127 nM | 2.3 nM | 50 nM | 1.8 nM | 2 nM | 1.6 nM | 7.9 nM
2 | CC(C)(C)[C@@H]1NC(=O)O[C@@H]2C[C@@H]3C[C@@H]3[C@H]2CCCCCc2nc3ccc(F)cc3nc2O[C@@H]2C[C@@H](C(=O)N[C@]3(C(=O)NS(=O)(=O)C4CC4)C[C@H]3C(F)F)N(C2)C1=O [Example 12, (1aS,2aR,6S,9S,11R,23aR,23bS)-6-tert-butyl-N-[(1R,2R)-1-[(cyclopropylsulfonyl)carbamoyl]-2-(difluoromethyl)cyclopropyl]-15-fluoro-4,7-dioxo-1a,2,2a,4,5,6,7,10,11,19,20,21,22,23,23a,23b-hexadecahydro-1H,9H-8,11-methanocyclopropa[4′,5′]cyclopenta[1′,2′:18,19][1,10,3,6]dioxadiazacyclononadecino[11,12-b]quinoxaline-9-carboxamide] | 0.02 nM | 1.3 nM | 2.6 nM | 89 nM | 1.4 nM | 22 nM | 0.8 nM | 1.9 nM | 0.64 nM | 15.6 nM
3 | COc1ccc2nc3c(nc2c1)O[C@@H]1C[C@@H](C(=O)N[C@]2(C(=O)NS(=O)(=O)C4(C)CC4)C[C@H]2CC(F)F)N(C1)C(=O)[C@H](C(C)(C)C)NC(=O)O[C@@H]1C[C@@H]2C[C@@H]2[C@H]1CCCCC3(F)F [Example 20, (1aS,2aR,6S,9S,11R,23aR,23bS)-6-tert-butyl-N-[(1R,2S)-2-(2,2-difluoroethyl)-1-{[(1-methylcyclopropyl)sulfonyl]carbamoyl}cyclopropyl]-19,19-difluoro-15-methoxy-4,7-dioxo-1a,2,2a,4,5,6,7,10,11,19,20,21,22,23,23a,23b-hexadecahydro-1H,9H-8,11-methanocyclopropa[4′,5′]cyclopenta[1′,2′:18,19][1,10,3,6]dioxadiazacyclononadecino[11,12-b]quinoxaline-9-carboxamide] | 0.04 nM | 5.9 nM | 5 nM | 46 nM | 5 nM | 12 nM | 5.2 nM | 5 nM | 4.1 nM | 6.3 nM
4 | CC(C)(C)[C@@H]1NC(=O)O[C@@H]2C[C@@H]3C[C@@H]3[C@H]2CCCCC(F)(F)c2nc3ccc(C#N)cc3nc2O[C@@H]2C[C@@H](C(=O)N[C@]3(C(=O)NS(=O)(=O)C4(C)CC4)C[C@H]3C(F)F)N(C2)C1=O [Example 14, (1aS,2aR,6S,9S,11R,23aR,23bS)-6-tert-butyl-15-cyano-N-[(1R,2R)-2-(difluoromethyl)-1-{[(1-methylcyclopropyl)sulfonyl]carbamoyl}cyclopropyl]-19,19-difluoro-4,7-dioxo-1a,2,2a,4,5,6,7,10,11,19,20,21,22,23,23a,23b-hexadecahydro-1H,9H-8,11-methanocyclopropa[4′,5′]cyclopenta [1′,2′:18,19][1,10,3,6]dioxadiazacyclononadecino[11,12-b]quinoxaline-9-carboxamide] | 0.01 nM | 1.1 nM | 1.4 nM | 5 nM | 1.4 nM | 1.4 nM | 0.9 nM | 0.69 nM | 0.55 nM | 0.65 nM

— patent US9617310B2 (priority 2013, dated 2017)
